In PubChem BioAssay (NCI):
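All cell lines were grown in 96-well plates and treated with compound for 48 hours. The concentration for 50% growth inhibition is given as GI50. TGI denotes the concentration required for complete inhibition of growth.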

Columns and labels:
Assay in all cases: inhibition of tumour cell growth, NCI panel, 48 h
T-47D breast = system: T-47D breast
BT-549 breast = system: BT-549 breast
MCF7 breast = system: MCF7 breast
MDA-N = system: MDA-N
DMS 273 small cell lung = system: DMS 273 small cell lung

CCCCNc1nc(NC(C)(C)C)nc(NC(C)(C)C)n1
GI50 (T-47D breast): 15.2 µM
TGI (T-47D breast): > 100 µM
GI50 (BT-549 breast): 19.1 µM
TGI (BT-549 breast): > 100 µM
GI50 (MCF7 breast): 9.94 µM
TGI (MCF7 breast): > 100 µM

CC#CC(O)(C(=O)OC1CCCN(C)C1)C1=CC=CCC1 (configuration not stated)
TGI (MDA-N): > 100 µM
TGI (T-47D breast): > 100 µM
TGI (MCF7 breast): > 100 µM

O=[N+]([O-])c1ccc2[nH]cc(-c3c4ccsc4cc4[nH]c5ccc([N+](=O)[O-])cc5c34)c2c1
GI50 (T-47D breast): 0.864 µM
TGI (T-47D breast): 4.46 µM
GI50 (BT-549 breast): 1.49 µM
TGI (BT-549 breast): 6.36 µM
GI50 (MCF7 breast): 0.606 µM
TGI (MCF7 breast): 4.75 µM

CCN(CC)CCNc1c(OC)cc(C)c2sc3ccccc3c(=O)c12
TGI (T-47D breast): 39.9 µM
TGI (BT-549 breast): 24.2 µM
TGI (MCF7 breast): 18.7 µM

CN1CCN(Cc2ccc(NC(=O)c3cncc(C#Cc4cnc(N)c5ccc(F)cc45)c3)cc2C(F)(F)F)CC1
GI50 (T-47D breast): 4.53 µM
TGI (T-47D breast): 11.4 µM
GI50 (BT-549 breast): 4.38 µM
TGI (BT-549 breast): 8.86 µM
GI50 (MCF7 breast): 1.27 µM
TGI (MCF7 breast): 5.43 µM

O=c1cc(-c2ccccc2)[nH]c2cc(Cl)cc(Cl)c12
TGI (DMS 273 small cell lung): > 100 µM

CC(=O)CC1CCC(=O)CCC(=O)OC(CC(C)=O)CCC(=O)CCC(=O)O1 (configuration not stated)
TGI (MDA-N): > 100 µM
TGI (T-47D breast): > 100 µM
TGI (BT-549 breast): > 100 µM
TGI (MCF7 breast): > 100 µM

S=C(Nc1ccc(-c2nc3ccccc3[nH]2)cc1)NC1CCCCC1
GI50 (T-47D breast): 27 µM
GI50 (BT-549 breast): 21.7 µM
TGI (BT-549 breast): 60.3 µM
GI50 (MCF7 breast): 19.7 µM
TGI (MCF7 breast): > 100 µM

O=c1ccn(C2OC(CO)C(O)C2O)c(=O)[nH]1 (configuration not stated)
GI50 (MDA-N): > 1000 µM
TGI (MDA-N): > 1000 µM
GI50 (T-47D breast): > 1000 µM
TGI (T-47D breast): > 1000 µM
TGI (BT-549 breast): > 1000 µM
GI50 (MCF7 breast): > 1000 µM
TGI (MCF7 breast): > 1000 µM

C=CCn1c(C)nc2cc(Nc3nc(Nc4ccc5nc(C)n(CC=C)c5c4)c4ccccc4n3)ccc21
GI50 (T-47D breast): 0.28 µM
TGI (T-47D breast): 0.909 µM
GI50 (MCF7 breast): 0.224 µM
TGI (MCF7 breast): 0.554 µM

CN(C)CCNc1nc2ccccc2c2c1c1c(n2Cc2ccccc2)-c2ccccc2C1=O
GI50 (T-47D breast): 19.4 µM
TGI (T-47D breast): 50.6 µM
GI50 (BT-549 breast): 16.7 µM
TGI (BT-549 breast): 32.9 µM
GI50 (MCF7 breast): 15.1 µM
TGI (MCF7 breast): 33.6 µM

Cc1cc(/C=C2\SC(=Nc3ccccc3)N(C3CCCC3)C2=O)c(C)n1-c1ccc(Cl)cc1
GI50 (T-47D breast): > 100 µM
TGI (T-47D breast): > 100 µM
GI50 (BT-549 breast): > 100 µM
TGI (BT-549 breast): > 100 µM
GI50 (MCF7 breast): > 100 µM
TGI (MCF7 breast): > 100 µM

Cc1cc(S(=O)(=O)Nc2nc(N)nc(N3N=CCC3C)n2)c(S)cc1Cl (configuration not stated)
TGI (MDA-N): > 10 µM
TGI (T-47D breast): > 10 µM
TGI (BT-549 breast): > 10 µM
TGI (MCF7 breast): > 10 µM

Nc1c(C(=O)c2ccccc2)sc2nc(-c3cccs3)ccc12
GI50 (T-47D breast): 0.335 µM
TGI (T-47D breast): 12.2 µM
GI50 (BT-549 breast): 0.332 µM
TGI (BT-549 breast): 11.6 µM
GI50 (MCF7 breast): 0.0878 µM
TGI (MCF7 breast): 4.6 µM

Oc1ccc(N=Nc2ccc(Cl)cc2)cc1
TGI (MDA-N): 30.6 µM
TGI (T-47D breast): 67.4 µM
TGI (BT-549 breast): 32.6 µM
TGI (MCF7 breast): 35.9 µM

CN1CC(c2ccccc2)N(CCCCN2CC(c3ccccc3)N(C)CC2c2ccccc2)CC1c1ccccc1 (configuration not stated)
TGI (MDA-N): > 100 µM
TGI (BT-549 breast): > 100 µM
TGI (MCF7 breast): > 100 µM

O=C(Oc1ccc(O)c2c(=O)n3c(cc12)[nH]c1ccccc13)c1ccccc1
GI50 (T-47D breast): 9.32 µM
TGI (T-47D breast): 47.2 µM
GI50 (BT-549 breast): 6.35 µM
TGI (BT-549 breast): 32.2 µM
GI50 (MCF7 breast): 74.1 µM
TGI (MCF7 breast): > 100 µM

O=C(O)C1CCc2ccc3ccccc3c2C1c1cccc2ccccc12 (configuration not stated)
TGI (MDA-N): 52.3 µM
TGI (T-47D breast): > 100 µM
TGI (BT-549 breast): 38.8 µM
TGI (MCF7 breast): 89.4 µM

COc1cc2c(cc1OCc1ccccc1)N=C[C@@H]1C/C(=C/C(=O)NCCCN3C(=O)c4cccc5cccc(c45)C3=O)CN1C2=O
GI50 (T-47D breast): 0.137 µM
TGI (T-47D breast): 3.06 µM
GI50 (BT-549 breast): 0.273 µM
TGI (BT-549 breast): 1.08 µM
GI50 (MCF7 breast): 0.256 µM
TGI (MCF7 breast): 14.3 µM

COc1cc([C@H](C)c2ccc3ccccc3c2)cc(OC)c1OC
GI50 (T-47D breast): 0.626 µM
TGI (T-47D breast): > 100 µM
GI50 (BT-549 breast): 0.848 µM
TGI (BT-549 breast): 18.4 µM

CC1=CSC2=NC(c3ccc(Cl)c(Cl)c3)=CC(c3ccc(Cl)cc3)N12 (configuration not stated)
GI50 (T-47D breast): > 100 µM
TGI (T-47D breast): > 100 µM
GI50 (BT-549 breast): > 100 µM
TGI (BT-549 breast): > 100 µM
GI50 (MCF7 breast): > 100 µM
TGI (MCF7 breast): > 100 µM

COc1cc2c(cc1C)NC(=O)/C2=C\c1cc(OC)c(OC)c(OC)c1
GI50 (T-47D breast): > 100 µM
TGI (T-47D breast): > 100 µM
GI50 (BT-549 breast): 29.6 µM
TGI (BT-549 breast): > 100 µM
GI50 (MCF7 breast): 42.2 µM
TGI (MCF7 breast): > 100 µM

c1ccc2c(c1)[I+]c1ccccc1-2
GI50 (T-47D breast): > 50 µM
TGI (T-47D breast): > 50 µM
GI50 (BT-549 breast): > 50 µM
TGI (BT-549 breast): > 50 µM
GI50 (MCF7 breast): > 50 µM
TGI (MCF7 breast): > 50 µM
